Assay results reported in PubChem BioAssay AID1918940 (Molecular Pharmacology Branch, DTP, NCI, 2023).

Tested on: NCI-H211 complex spheroid viability
Test: Anticancer human tumor NCI-H211 cell line growth inhibition [LSD1];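 note: luminescent viability read after seven days of drug exposure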;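 for viability, T/C: 100% = DMSO vehicle control viability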
Settings: for IC50: curve of first compound; for viability, T/C: stronger effect = lower value
How it was run: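 Multicellular complex spheroids of tumor cells with human endothelial cells (HUVEC) and mesenchymal stem cells; the LSD1 inhibitor iadademstat was combined with standard-of-care or investigational agents. Top concentration at or near clinical Cmax, half-log dilutions; final DMSO ≤0.25%.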

[1] = second compound 0.1 µM, first compound 0.000316 µM
[2] = second compound 0.1 µM, first compound 0.001 µM
[3] = second compound 0.1 µM, first compound 0.00316 µM
[4] = second compound 0.1 µM, first compound 0.01 µM
[5] = second compound 0.1 µM, first compound 0.0316 µM
[6] = second compound 0.1 µM, first compound 0.1 µM
[7] = second compound 0.316 µM, first compound 0.000316 µM
[8] = second compound 0.316 µM, first compound 0.001 µM
[9] = second compound 0.316 µM, first compound 0.00316 µM
[10] = second compound 0.316 µM, first compound 0.01 µM
[11] = second compound 0.316 µM, first compound 0.0316 µM
[12] = second compound 0.316 µM, first compound 0.1 µM
[13] = second compound 1 µM, first compound 0.000316 µM
[14] = second compound 1 µM, first compound 0.001 µM
[15] = second compound 1 µM, first compound 0.00316 µM
[16] = second compound 1 µM, first compound 0.01 µM
[17] = second compound 1 µM, first compound 0.0316 µM
[18] = second compound 1 µM, first compound 0.1 µM
[19] = second compound 3.16 µM, first compound 0.000316 µM
[20] = second compound 3.16 µM, first compound 0.001 µM
[21] = second compound 3.16 µM, first compound 0.00316 µM
[22] = second compound 3.16 µM, first compound 0.01 µM
[23] = second compound 3.16 µM, first compound 0.0316 µM
[24] = second compound 3.16 µM, first compound 0.1 µM
[25] = second compound 10 µM, first compound 0.000316 µM
[26] = second compound 10 µM, first compound 0.001 µM
[27] = second compound 10 µM, first compound 0.00316 µM
[28] = second compound 10 µM, first compound 0.01 µM
[29] = second compound 10 µM, first compound 0.0316 µM
[30] = second compound 10 µM, first compound 0.1 µM

Row | Structure (SMILES) | IC50 (second compound 0.1 µM) [nM] | IC50 (second compound 0.316 µM) [nM] | IC50 (second compound 1 µM) [nM] | IC50 (second compound 3.16 µM) [nM] | IC50 (second compound 10 µM) [nM] | viability, T/C [3] [%] | viability, T/C [4] [%] | viability, T/C [5] [%] | viability, T/C [6] [%] | viability, T/C [9] [%] | viability, T/C [10] [%] | viability, T/C [11] [%] | viability, T/C [12] [%] | viability, T/C [15] [%] | viability, T/C [16] [%] | viability, T/C [17] [%] | viability, T/C [18] [%] | viability, T/C [21] [%] | viability, T/C [22] [%] | viability, T/C [23] [%] | further results
1 | CC(C)CC(NC(=O)C(Cc1ccccc1)NC(=O)c1cnccn1)B(O)O (stereo not given) + NC1CC1c1ccc(-c2cccc(O)c2)cc1 | 3.45 | 3.26 | 2.99 | 3.46 | 1.78 | 54.1 | 1.17 | 0.06 | 0.19 | 51.4 | 1.97 | 0.17 | 0.17 | 47.8 | 0.86 | 0.09 | 0.18 | 54.2 | 1.3 | 0.09 | viability, T/C [1]: 112%; viability, T/C [2]: 108%; viability, T/C [7]: 107%; viability, T/C [8]: 119%; viability, T/C [13]: 83.4%; viability, T/C [14]: 104%; viability, T/C [19]: 81.2%; viability, T/C [20]: 102%; viability, T/C [24]: 0.19%; viability, T/C [25]: 70.8%; viability, T/C [26]: 74.1%; viability, T/C [27]: 27.7%; viability, T/C [28]: 0.47%; viability, T/C [29]: 0.18%; viability, T/C [30]: 0.27%
2 | CC(C)CC(NC(=O)CNC(=O)c1cc(Cl)ccc1Cl)B1OC(=O)CC(CC(=O)O)(C(=O)O)O1 (stereo not given) + NC1CC1c1ccc(-c2cccc(O)c2)cc1 | 15.4 | 16 | 14.9 | 13.9 | 7.26 | 82.2 | 61.9 | 29.3 | 5.5 | 97.5 | 61.6 | 30 | 5.69 | 96.7 | 57.4 | 27.8 | 4.52 | 93.4 | 56.5 | 24.5 | viability, T/C [1]: 90.8%; viability, T/C [2]: 76.5%; viability, T/C [7]: 91.6%; viability, T/C [8]: 102%; viability, T/C [13]: 74.5%; viability, T/C [14]: 83.2%; viability, T/C [19]: 75.3%; viability, T/C [20]: 82.8%; viability, T/C [24]: 4.84%; viability, T/C [25]: 71%; viability, T/C [26]: 70.3%; viability, T/C [27]: 98.3%; viability, T/C [28]: 38.5%; viability, T/C [29]: 17.4%; viability, T/C [30]: 2.36%
3 | COc1cc(Nc2ncc3c(n2)-c2ccc(Cl)cc2C(c2c(F)cccc2OC)=NC3)ccc1C(=O)O + NC1CC1c1ccc(-c2cccc(O)c2)cc1 | < 3.16 | < 3.16 | < 3.16 | < 3.16 | < 3.16 | 28.2 | 5.72 | 4.04 | 3.29 | 37.7 | 6.96 | 3.41 | 4.23 | 33.4 | 6.82 | 3.89 | 4.49 | 21.8 | 7.56 | 4.05 | viability, T/C (second compound 0.1 µM, first compound 0.316 µM): 4.66%; viability, T/C (second compound 0.1 µM, first compound 1 µM): 3.94%; viability, T/C (second compound 0.316 µM, first compound 0.316 µM): 4.53%; viability, T/C (second compound 0.316 µM, first compound 1 µM): 3.46%; viability, T/C (second compound 1 µM, first compound 0.316 µM): 3.81%; viability, T/C (second compound 1 µM, first compound 1 µM): 3.95%; viability, T/C [24]: 3.76%; viability, T/C (second compound 3.16 µM, first compound 0.316 µM): 3.87%; viability, T/C (second compound 3.16 µM, first compound 1 µM): 3.54%; viability, T/C [27]: 21.8%; viability, T/C [28]: 6.88%; viability, T/C [29]: 4.59%; viability, T/C [30]: 4.93%; viability, T/C (second compound 10 µM, first compound 0.316 µM): 5.57%; viability, T/C (second compound 10 µM, first compound 1 µM): 4.21%
